Experimental data published in ChEMBL document CHEMBL1201862, “PubChem BioAssay data set” (2004).
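Dose response: 5 concentrations. Exposure: 48 h. Format: 96-well plates. Endpoint: linear interpolation; highest concentration if not reached. GI50 marks 50% less growth.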 Active and inactive are the calls of the source. Cut-off read from the data, not from the text of the source: active = GI50 up to about 1.1 µM and inactive = higher.

Key:
Assay in all cases: inhibition of tumour cell growth, NCI panel, 48 h
A549 = test system: A549
SF-268 = test system: SF-268
NCI-H460 = test system: NCI-H460
K562 = test system: K562
MOLT-4 = test system: MOLT-4
SNB-75 = test system: SNB-75
SK-MEL-28 = test system: SK-MEL-28
SN12C = test system: SN12C
TK-10 = test system: TK-10
LOX IMVI = test system: LOX IMVI
CAKI-1 = test system: CAKI-1
XF498 = test system: XF498
OVCAR-8 = test system: OVCAR-8
RXF 631 = test system: RXF 631
DLD-1 = test system: DLD-1
SK-MEL-5 = test system: SK-MEL-5
LXFL 529 = test system: LXFL 529
DMS-114 = test system: DMS-114
NCI-H23 = test system: NCI-H23
DMS-273 = test system: DMS-273
SF-539 = test system: SF-539
HOP-18 = test system: HOP-18
786-0 = test system: 786-0
A498 = test system: A498
SR = test system: SR
UACC-62 = test system: UACC-62
RXF 393 = test system: RXF 393
SNB-19 = test system: SNB-19
U-251 = test system: U-251
RPMI-8226 = test system: RPMI-8226
HT-29 = test system: HT-29
UO-31 = test system: UO-31
NCI-H226 = test system: NCI-H226
EKVX = test system: EKVX
SK-OV-3 = test system: SK-OV-3
OVCAR-5 = test system: OVCAR-5
NCI-H522 = test system: NCI-H522
Malme-3M = test system: Malme-3M
HOP-92 = test system: HOP-92
HCT-116 = test system: HCT-116
SNB-78 = test system: SNB-78
SW-620 = test system: SW-620
OVCAR-4 = test system: OVCAR-4
CCRF-CEM = test system: CCRF-CEM
HOP-62 = test system: HOP-62
SK-MEL-2 = test system: SK-MEL-2
OVCAR-3 = test system: OVCAR-3
KM12 = test system: KM12
UACC-257 = test system: UACC-257
IGROV-1 = test system: IGROV-1
M19-MEL = test system: M19-MEL
HCT-15 = test system: HCT-15
ACHN = test system: ACHN
KM-20L2 = test system: KM-20L2
HCC 2998 = test system: HCC 2998
COLO 205 = test system: COLO 205
M14 = test system: M14
SF-295 = test system: SF-295
HL-60 = test system: HL-60

Measured: GI50

C=C(C)[C@H]1CC[C@@]2(C)C(C1)[C@H](C)CC[C@@H]2O (stereo partly specified)
> 100 µM: HCT-15
inactive: A549 > 100 µM | SF-268 > 100 µM | NCI-H460 > 100 µM | K562 > 100 µM | MOLT-4 88.3 µM | SNB-75 > 100 µM | SK-MEL-28 > 100 µM | SN12C > 100 µM | TK-10 > 100 µM | LOX IMVI > 100 µM | CAKI-1 > 100 µM | XF498 > 100 µM | OVCAR-8 > 100 µM | RXF 631 > 100 µM | DLD-1 > 100 µM | SK-MEL-5 > 100 µM | LXFL 529 > 100 µM | DMS-114 > 100 µM | NCI-H23 > 100 µM | DMS-273 > 100 µM | SF-539 > 100 µM | HOP-18 > 100 µM | 786-0 > 100 µM | A498 > 100 µM | SR > 100 µM | UACC-62 > 100 µM | RXF 393 > 100 µM | SNB-19 > 100 µM | U-251 > 100 µM | RPMI-8226 > 100 µM | HT-29 70.5 µM | UO-31 > 100 µM | NCI-H226 > 100 µM | EKVX > 100 µM | SK-OV-3 > 100 µM | OVCAR-5 > 100 µM | NCI-H522 47 µM | Malme-3M > 100 µM | HOP-92 > 100 µM | HCT-116 > 100 µM | SNB-78 > 100 µM | SW-620 > 100 µM | OVCAR-4 > 100 µM | CCRF-CEM > 100 µM | HOP-62 > 100 µM | SK-MEL-2 > 100 µM | OVCAR-3 > 100 µM | KM12 > 100 µM | UACC-257 > 100 µM | IGROV-1 > 100 µM | M19-MEL > 100 µM | ACHN > 100 µM | KM-20L2 > 100 µM | HCC 2998 > 100 µM | COLO 205 > 100 µM | M14 > 100 µM | SF-295 > 100 µM

CSc1ccc(C2OC(=O)c3ccccc32)c2ccccc12 (stereo unspecified)
97.7 µM: HCT-15
inactive: A549 81.3 µM | SF-268 > 100 µM | NCI-H460 > 100 µM | K562 31 µM | MOLT-4 32.3 µM | SNB-75 14.2 µM | SK-MEL-28 > 100 µM | SN12C > 100 µM | HL-60 61.2 µM | LOX IMVI 88.3 µM | CAKI-1 80.7 µM | XF498 61.8 µM | OVCAR-8 > 100 µM | RXF 631 > 100 µM | DLD-1 86.5 µM | SK-MEL-5 58.2 µM | LXFL 529 58.3 µM | DMS-114 74.3 µM | SF-539 > 100 µM | HOP-18 40.6 µM | 786-0 > 100 µM | SR 97.1 µM | UACC-62 54.3 µM | RXF 393 > 100 µM | SNB-19 > 100 µM | U-251 37.3 µM | RPMI-8226 47.2 µM | HT-29 52.5 µM | UO-31 39.7 µM | EKVX > 100 µM | SK-OV-3 > 100 µM | OVCAR-5 > 100 µM | NCI-H522 51.8 µM | Malme-3M > 100 µM | HOP-92 49 µM | HCT-116 87.5 µM | SNB-78 46.5 µM | SW-620 > 100 µM | OVCAR-4 70.5 µM | CCRF-CEM 54.8 µM | HOP-62 > 100 µM | SK-MEL-2 > 100 µM | KM12 78 µM | UACC-257 > 100 µM | IGROV-1 98.9 µM | M19-MEL > 100 µM | ACHN 88.5 µM | KM-20L2 67 µM | HCC 2998 70.8 µM | COLO 205 > 100 µM | M14 > 100 µM | SF-295 > 100 µM
